Laboratory results reported in publication PMC3822689 (Journal of Cellular and Molecular Medicine, 2012).

Tests used:
[1] = target: PBR (peripheral benzodiazepine binding sites, rat kidney mitochondrial membranes) (Rattus norvegicus, UniProt P16257); experiment: [3H]-PK 11195 binding, peripheral benzodiazepine receptor; conditions: 10 and 100 μM
[2] = test system: CBR (central benzodiazepine binding sites, rat cerebral cortex membranes); experiment: [3H] Ro 15-1788 binding, central benzodiazepine receptor; conditions: 10 and 100 μM

Chain of PBR (peripheral benzodiazepine binding sites, rat kidney mitochondrial membranes) (P16257 whole entry): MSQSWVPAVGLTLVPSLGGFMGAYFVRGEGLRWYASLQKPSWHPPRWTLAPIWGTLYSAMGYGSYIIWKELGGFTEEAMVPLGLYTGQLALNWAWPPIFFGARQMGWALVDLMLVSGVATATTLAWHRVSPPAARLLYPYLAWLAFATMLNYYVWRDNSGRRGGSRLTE

SMILES | affinity for PBR [1] | affinity for CBR [2]
CCC(C)N(C)C(=O)c1cc2ccccc2c(-c2ccccc2Cl)n1 (stereo not shown) [PK 11195, 1-(2-chlorophenyl)-N-methyl-N-(1-methylpropyl)-3-isoquinoline carboxamide] | high affinity | 
CCOC(=O)c1ncn2c1CN(C)C(=O)c1cc(F)ccc1-2 [Ro 15–1788] |  | high affinity
CN1C(=O)CN=C(c2ccccc2)c2cc(Cl)ccc21 [diazepam] | high affinity | high affinity
